Data: patent US9289456B2 (priority 2010, dated 2016)
pIC50: −log10 of the molar value. Where “and” joins values, the source holds several entries; their conditions need not be identical. Equal values may be shown once. Read-outs that look alike come from different tables or passages of the source. Marks after values point to notes of the source that are not given here.

How the values were obtained:
[1] = tested on: HeLa cells
[2] = tested on: MxA; assay type: cell-based, human; details: 24 hrs
[3] = tested on: Flotillin-1; assay: cells; assay type: cell-based, human
[4] = tested on: VSV-GFP; assay: microbe, parasite or virus in culture; assay type: cell-based, Vesicular Stomatitis Virus
[5] = tested on: Rae1; assay: cells; assay type: cell-based; details: Homo sapiens, HeLa, 24 hrs, read-out: Rae1 protein level, % of control
[6] = tested on: VSV-GFP; assay type: cell-based, Vesicular Stomatitis Virus
[7] = tested on: Nup98; assay: cells; assay type: cell-based; details: Homo sapiens, HeLa, 24 hrs, read-out: Nup98 protein level, % of control

`CC[C@H](C)C(=O)O[C@H]1C[C@@H](C)C=C2C=C[C@H](C)[C@H](CC[C@@H]3C[C@@H](O)CC(=O)O3)[C@H]21` [lovastatin] was tested, and the Cell survival [1] was ~30% and the “Toxicity to HeLa cells” value [1] was “highly toxic”.
With `CC[C@H](C)C(=O)O[C@H]1C[C@H](O)C=C2C=C[C@H](C)[C@H](CC[C@@H](O)C[C@@H](O)CC(=O)O)[C@H]21` [pravastatin] the “Cell death rate, slope d” value [1] was −1.20 % cells/μM Prava and the “Cell death rate, slope c” value ([1]; human) was −1.78 % cells/μM Prava.
In the case of `CCC(C)(C)C(=O)O[C@H]1C[C@@H](C)C=C2C=C[C@H](C)[C@H](CC[C@@H]3C[C@@H](O)CC(=O)O3)[C@H]21` [simvastatin], the MxA protein levels ([2]; 0.125 μM) was ~400%, the MxA protein levels ([2]; 0.5 μM) was 650% and the MxA protein levels ([2]; 2.0 μM) was 150%. The “Flotillin-1 levels, % of control” value ([3]; 0.125 µM) was ~160% and ~100%, the “Flotillin-1 levels, % of control” value ([3]; 0.5 µM) was ~90% and the activity at 0.5 µM ([3]; Homo sapiens, HeLa, read-out: Flotillin-1 levels, % of control) was ~75%. The “Cell death rate (Δ% cell death per ΔμM), slope b” value [1] was −2.61 % cells/μM Sim, the “Slope a (m), relative trend of cell survival, FIG. 18” value ([1]; 0.125-2 μM 8 hrs) was −6.54 and the “Slope b (m), relative trend of cell survival, FIG. 18” value ([1]; 0.125-2 μM 8 hrs) was −10.46. The “Cell death rate (Δ% cell death per ΔμM), slope a” value ([1]; human) was −1.63 % cells/μM Sim, the “Decrease of pfu in log-units” value [4] was 2 log-units and the “Fold lower pfu than control VSV-infected cells” value [4] was 660 fold. The “Pfu values (viral titer of supernatant)” value [4] was 1.80×10^4 (+/−3×10^3) pfu/ml, the pIC50 ([4]; Vesicular stomatitis virus, HeLa, read-out: Concentration needed for reduction of pfu values to half of control (IC50)) was 6.56 and the activity at 0.125 µM ([5]; 0.125 μM) was 196%. For the same molecule, the activity at 0.5 µM ([5]; 0.5 μM) was 310%, the activity at 2 µM ([5]; 2.0 μM) was 390% and the “Pretreatment time required to inhibit VSV protein levels” value [6] was ≥ 4 h. The activity at 0.125 µM ([7]; 0.125 μM) was 180%, the activity at 0.5 µM ([7]; 0.5 μM) was 240% and the activity at 2 µM ([7]; 2.0 μM) was 260%.
In the case of Methyl-β-cyclodextrin [MβCD], the Cell survival [1] was ~20%, the “Toxicity to HeLa cells” value [1] was “highly toxic” and the “Attenuation of viral titers by pretreatment” value [4] was “attenuated”. The “Fold decrease of VSV titers” value [4] was 160 fold, the “VSV titer after pretreatment” value [4] was 5.25×10^4 (+/1−5.5×10^3) pfu/ml and the “VSV G protein level, % of VSV control infection” value [6] was 150% and 195% and 247% and 182% and 210%. The “VSV N/P protein level, % of VSV control infection” value [6] was 153% and 220% and 150% and 275% and 147% and 162%.
